Data reported in US11214803B2, “Modulators of YAP1 expression” (Ionis Pharmaceuticals, Inc., priority 2019, dated 2022).
Strand notation (5' to 3'): a small letter for the sugar, then the base; units joined by * are phosphorothioate-linked, units joined directly phosphodiester-linked; [ ] holds rarer units or linkages, { } end groups; capitals alone tell only the bases. e = 2'-O-(2-methoxyethyl) (MOE); k = constrained ethyl (cEt); [5mC] = 5-methylcytosine; d = 2'-deoxy (DNA); m = 2'-O-methyl

tested on: Yap1 mRNA; assay: Antisense inhibition of human Yap1 in SNU-449 cells by modified oligonucleotides, single dose (Example 5, RTS36584); type: cell-based; details: Table 39; SNU-449 cells, 10,000 cells per well, free uptake, 2,000 nM oligonucleotide, approx. 48 hours; RTS36584; normalized to RIBOGREEN; Yap1 mRNA relative to untreated control
Method in brief: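 Each modified oligonucleotide is applied by free uptake to SNU-449 cultures at 2,000 nM, and total RNA is harvested around 48 h later. Yap1 transcript, quantified with the RTS36584 set and corrected for RIBOGREEN RNA content, is given as % UTC. Asterisks mark sequences overlapping the amplicon.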

| Substance | YAP1 (% UTC) |
| --- | --- |
| 1198424 (k[5mC]*dT*d[5mC]*dT*dT*dA*dT*dA*dT*dG*dG*kT*eT*kT*eT*kG; antisense) [Compound 1198424] | 15 |
| 1198437 (kT*dT*dT*dA*dT*dG*dT*dA*dA*dT*dA*kT*eT*kG*e[5mC]*kA; antisense) [Compound 1198437] | 63 |
| 1198451 (k[5mC]*dT*dA*dA*dG*dT*dA*dA*dG*dG*dT*kT*eT*k[5mC]*e[5mC]*k[5mC]; antisense) [Compound 1198451] | 48 |

same assay, conditions: Table 40 (separate experiment); SNU-449 cells, 10,000 cells per well, free uptake, 2,000 nM oligonucleotide, approx. 48 hours; RTS36584; normalized to RIBOGREEN; Yap1 mRNA relative to untreated control

| Substance | YAP1 (% UTC) |
| --- | --- |
| 1198756 (kG*eT*kG*d[5mC]*dT*dT*dT*dG*dG*dA*dA*dG*eA*eT*k[5mC]*kT; antisense) [Compound 1198756] | 50 |

same assay, conditions: Table 41; SNU-449 cells, 10,000 cells per well, free uptake, 2,000 nM modified oligonucleotide, approximately 48 hours; RTS36584; normalized to RIBOGREEN; Yap1 mRNA relative to untreated control cells

| Substance | YAP1 (% UTC) |
| --- | --- |
| 1198789 (antisense kA*eA*kA*dG*dT*dG*dT*dA*dT*dG*dT*d[5mC]*eA*eG*kA*kA) [Compound 1198789] | 22 |
| 1198688 (antisense kA*kT*dA*dT*dT*dG*d[5mC]*dA*dA*dT*d[5mC]*dT*kG*eT*k[5mC]*eT) [Compound 1198688] | 48 |
| 1198675 (antisense k[5mC]*kA*dG*dA*dT*dT*dT*dA*dG*dG*dA*dT*kG*e[5mC]*kA*eT) [Compound 1198675] | 35 |

same assay, conditions: Table 42 (separate experiment); SNU-449 cells, 10,000 cells per well, free uptake, 2,000 nM modified oligonucleotide, approximately 48 hours; RTS36584; normalized to RIBOGREEN; Yap1 mRNA relative to untreated control cells

| Substance | YAP1 (% UTC) |
| --- | --- |
| 1198713 (kT*kT*dA*dG*dA*d[5mC]*dT*dA*dA*dG*dT*dA*kA*eG*kG*eT; antisense) [Compound 1198713] | 62 |
| 1198209 (kT*kA*dG*dA*dG*dT*dA*dT*dG*dT*dG*eG*e[5mC]*eA*kA*kT; antisense) [Compound 1198209] | 45 |
| 1198706 (kA*kG*dT*dA*dA*dG*dG*dT*dT*dT*d[5mC]*d[5mC]*k[5mC]*eA*kG*eA; antisense) [Compound 1198706] | 39 |
| 1198686 (antisense kG*kA*d[5mC]*dA*dA*d[5mC]*dT*d[5mC]*dT*dT*dA*dT*kA*eT*kG*eG) [Compound 1198686] | 78 |
| 1198683 (antisense kA*k[5mC]*dT*d[5mC]*dT*dT*dA*dT*dA*dT*dG*dG*kT*eT*kT*eT) [Compound 1198683] | 27 |
| 1198684 (antisense kA*kA*d[5mC]*dT*d[5mC]*dT*dT*dA*dT*dA*dT*dG*kG*eT*kT*eT) [Compound 1198684] | 75 |
| 1198198 (kT*kG*dT*d[5mC]*dT*d[5mC]*dA*dT*dG*d[5mC]*d[5mC]*eT*eT*eA*kT*kA; antisense) [Compound 1198198] | 29 |

same assay, conditions: Table 43 experiment; SNU-449 cells, 10,000 cells per well, free uptake, 2,000 nM, approximately 48 hours; RTS36584; Yap1 mRNA normalized to RIBOGREEN, relative to untreated control cells

| Substance | YAP1 (% UTC) |
| --- | --- |
| 1198281 (kG*kA*d[5mC]*dT*dA*dA*dG*dT*dA*dA*dG*eG*eT*eT*kT*k[5mC]; antisense) [Compound 1198281] | 71 |
| 1198480 (antisense kT*kT*dT*dT*dA*d[5mC]*dA*dT*dT*dA*dG*eG*kA*eA*k[5mC]*eA) [Compound 1198480] | 75 |

same assay, conditions: Table 44 experiment; SNU-449 cells, 10,000 cells per well, free uptake, 2,000 nM, approximately 48 hours; RTS36584; Yap1 mRNA normalized to RIBOGREEN, relative to untreated control cells

| Substance | YAP1 (% UTC) |
| --- | --- |
| 1198495 (antisense kA*kG*dT*dG*d[5mC]*dT*dT*dT*dG*dG*dA*eA*kG*eA*kT*e[5mC]) [Compound 1198495] | 22 |
| 1198538 (kA*k[5mC]*dT*dA*dA*dG*dT*dA*dA*dG*dG*eT*kT*eT*k[5mC]*e[5mC]; antisense) [Compound 1198538] | 29 |
| 1198537 (k[5mC]*kT*dA*dA*dG*dT*dA*dA*dG*dG*dT*eT*kT*e[5mC]*k[5mC]*e[5mC]; antisense) [Compound 1198537] | 24 |
| 1198516 (kA*kT*dA*dT*dT*dG*d[5mC]*dA*dA*dT*d[5mC]*eT*kG*eT*k[5mC]*eT; antisense) [Compound 1198516] | 50 |

same assay, conditions: Table 45; Yap1 mRNA as percent of untreated control, SNU-449 cells, single dose

| Substance | YAP1 (% UTC) |
| --- | --- |
| 1198933 (kT*kT*dT*dA*dG*dG*dA*dT*dG*d[5mC]*dA*kT*dG*kG*dT*kT; antisense) [Compound 1198933] | 69 |

same assay, conditions: Table 46; Yap1 mRNA as percent of untreated control, SNU-449 cells, single dose

| Substance | YAP1 (% UT) |
| --- | --- |
| 1198821 (kT*k[5mC]*dT*dA*dT*dA*dT*dT*dA*dG*dA*kG*eT*kA*eT*kG; antisense) [Compound 1198821] | 62 |
| 1198855 (kT*kT*dA*dT*dA*dT*dG*dG*dT*dT*dT*kT*eG*kT*eG*kT; antisense) [Compound 1198855] | 30 |
| 1198889 (kT*kT*dA*dG*dA*d[5mC]*dT*dA*dA*dG*dT*kA*eA*kG*eG*kT; antisense) [Compound 1198889] | 27 |

same assay, conditions: Table 48; Yap1 mRNA level relative to untreated control; modified oligonucleotides targeting SEQ ID NO.: 1 and 2

| Substance | YAP1 (% UT) |
| --- | --- |
| 1198311 (k[5mC]*kA*k[5mC]*dT*dT*dT*dT*dA*d[5mC]*dA*dT*dT*kA*eG*kG*eA; antisense) [Compound 1198311] | 39 |
| 1198345 (kA*kA*kT*dA*dT*dT*dG*d[5mC]*dA*dA*dT*d[5mC]*kT*eG*kT*e[5mC]; antisense) [Compound 1198345] | 75 |
| 1198344 (kA*kT*kA*dT*dT*dG*d[5mC]*dA*dA*dT*d[5mC]*dT*kG*eT*k[5mC]*eT; antisense) [Compound 1198344] | 55 |
| 1097224 (antisense k[5mC]*kT*k[5mC]*dT*dT*dA*dT*dA*dT*dG*dG*dT*dT*kT*kT*kG) [Compound 1097224] | 22 |
| 1198296 (kT*kT*kA*dG*dA*dG*dT*dA*dT*dG*dT*dG*kG*e[5mC]*kA*eA; antisense) [Compound 1198296] | 29 |

same assay, conditions: Table 49; Yap1 mRNA level relative to untreated control; modified oligonucleotides targeting SEQ ID NO.: 1 and 2

| Substance | YAP1 (% UT) |
| --- | --- |
| 1198567 (antisense k[5mC]*kT*kT*dT*dT*dA*d[5mC]*dA*dT*dT*dA*dG*kG*kA*kA*e[5mC]) [Compound 1198567] | 54 |
| 1198552 (antisense kA*kG*kA*dG*dT*dA*dT*dG*dT*dG*dG*d[5mC]*kA*kA*kT*eA) [Compound 1198552] | 17 |
| 1198367 (kG*kA*k[5mC]*dT*dA*dA*dG*dT*dA*dA*dG*dG*kT*eT*kT*e[5mC]; antisense) [Compound 1198367] | 58 |
| 1198566 (antisense kT*kT*kT*dT*dA*d[5mC]*dA*dT*dT*dA*dG*dG*kA*kA*k[5mC]*eA) [Compound 1198566] | 83 |
| 1198578 (antisense GCTTTGGAAGATCTGA; chemistry not fully specified) [Compound 1198578] | 18 |

same assay, conditions: Table 50; Yap1 mRNA remaining as percent of untreated control (UT), SNU-449 cells, single dose

| Substance | YAP1 (% UT) |
| --- | --- |
| 1197233 (antisense kT*kA*kG*dA*mG*dT*dA*dT*dG*dT*dG*dG*d[5mC]*kA*kA*kT) [Compound 1197233] | 36 |
| 1197292 (kA*k[5mC]*kT*dT*mU*dT*dA*d[5mC]*dA*dT*dT*dA*dG*kG*kA*kA; antisense) [Compound 1197292] | 84 |
| 1198607 (antisense kA*kT*kG*dT*dA*dA*dT*dA*dT*dT*dG*d[5mC]*kA*kA*kT*e[5mC]) [Compound 1198607] | 77 |
| 1197231 (antisense kA*kT*kG*dG*mA*dA*dA*dT*dT*dG*dT*d[5mC]*dT*k[5mC]*kA*kT) [Compound 1197231] | 50 |
| 1198608 (antisense kT*kA*kT*dG*dT*dA*dA*dT*dA*dT*dT*dG*k[5mC]*kA*kA*eT) [Compound 1198608] | 83 |
| 1095453 (antisense kT*kG*kA*dG*dG*dT*dA*dT*dA*dA*d[5mC]*dT*kG*kG*kG*e[5mC]) [Compound 1095453] | 32 |
| 1198609 (antisense kT*kT*kT*dA*dT*dG*dT*dA*dA*dT*dA*dT*kT*kG*k[5mC]*eA) [Compound 1198609] | 52 |

same assay, conditions: Table 51; Yap1 mRNA remaining as percent of untreated control (UT), SNU-449 cells, single dose

| Substance | YAP1 (% UT) |
| --- | --- |
| 1200793 (kA*kG*kT*dA*dT*mG*dT*dG*dG*d[5mC]*dA*dA*dT*kA*kA*kT; antisense) [Compound 1200793] | 31 |
| 1197243 (antisense kA*kA*k[5mC]*dA*mC*dT*dG*dA*dG*dG*dT*dA*dT*kA*kA*k[5mC]) [Compound 1197243] | 81 |

same assay, conditions: Table 52; Yap1 mRNA, modified oligonucleotides targeting SEQ ID NO: 1 and 2

| Substance | YAP1 (% UT) |
| --- | --- |
| 1200808 (kA*k[5mC]*kT*dG*dA*mG*dG*dT*dA*dT*dA*dA*d[5mC]*kT*kG*kG; antisense) [Compound 1200808] | 45 |
| 1200870 (kA*k[5mC]*kT*dA*dA*mG*dT*dA*dA*dG*dG*dT*dT*kT*k[5mC]*k[5mC]; antisense) [Compound 1200870] | 73 |
| 1200827 (kA*kG*kT*dG*d[5mC]*mU*dT*dT*dG*dG*dA*dA*dG*kA*kT*k[5mC]) [Compound 1200827] | 67 |
| 1200862 (kT*kT*kT*dA*dA*mA*dG*dT*dG*dT*dA*dT*dG*kT*k[5mC]*kA; antisense) [Compound 1200862] | 17 |

same assay, conditions: Yap1 mRNA, percent of untreated control; modified oligonucleotides targeting SEQ ID NO: 1 and 2; Table 47

| Substance | YAP1 (% UT) |
| --- | --- |
| 1197191 (antisense kA*kG*kT*dG*d[5mC]*dT*dT*dT*dG*dG*dA*dA*dG*kA*kT*k[5mC]) [Compound 1197191] | 40 |
| 1198860 (kA*kA*d[5mC]*dT*d[5mC]*dT*dT*dA*dT*dA*dT*kG*eG*kT*eT*kT; antisense) [Compound 1198860] | 82 |
